Like-named read-outs stand apart in the source and are kept apart here.
How the values were obtained:
Assay type in all cases: cell-based
MDA-MB-231 = test: Real time cell proliferation, IncuCyte ZOOM, 72 hours
Huh7 = test: Cancer cell proliferation inhibition, MTS assay, 72 hours; conditions: Homo sapiens, Huh-7
Procedure: (§1) MTS assay was performed to evaluate the cancer cell proliferation inhibition (cancer cell apoptosis) effect of the compounds of examples of the present invention. Particularly, the assay was performed using the cancer cell lines GIST-T1, GIST-T1/816, GIST-430, GIST-430/654, GIST-R1, GIST-R3, M-NFS-60, RetParental (Ba/F3), Retwt (Ba/F3), RetV804M (Ba/F3), RET (LC2/ad-CDC6), FYN (MCP-1), FYN (FN), MDA-MB-231, Huh7, K562, T315I(Ba/F3), SK-MEL-28 and A375. Cell culture was performed using a medium suitable for each cell line.
(§2) Other cell lines were seeded in a 96-well plate containing the corresponding medium appropriate for each cell line at the density of 3,000 cells/well, followed by culture in a 5% CO2 and 37° C. incubator for 24 hours. The compounds of examples of the present invention were added to each well at the concentration of from the highest volume of 50 μM to every step of serial dilution. The solvent control, dimethylsulfoxide (DMSO), was treated at the same concentration of 0.05% (v/v) as the volume used for the treatment of the compounds above. Each cell line was cultured for 72 hours. To investigate the cell viability, the MTS and PMS (phenazine methosulfate) mixture provided in CellTiter 96® AQuous Non-Radioactive Cell Proliferation Assay Kit (Promega) was added to each cell culture medium, followed by additional culture at 37° C. for 2 hours. Then, OD450 was measured. Based on OD of the solvent control cells not treated with any compounds of the present invention, the cell proliferation inhibition rate was calculated according to the treatment concentration of each compound. At this time, the concentration of each compound that was able to inhibit cancer cell proliferation up to 50% was determined as IC50 (uM). IC50 of each compound was determined with three data sets and calculated by using Prism softwater (version 6.01, GraphPad).

SK-MEL-28 = test: as above; conditions: Homo sapiens
Procedure: as §1, §2

K562 = test: Cancer cell proliferation inhibition, CCK-8, 72 hours
Procedure: as §1
(§3) In the meantime, MDA-MB-231 and A375 cells were seeded in a 96well plate at the density of 2×10^3/100 μl/well, which stood for a day for attachment. The culture fluid was eliminated. After removing the culture medium, the medium was replaced with the culture medium containing the compounds of the present invention at 3-times serially diluted 9 concentrations (0.0015-10 μM) and the DMSO control, followed by incubation in a 37° C. CO2 incubator for 72 hours. On the other hand, K-562 and Ba/F3-T315I cells were seeded in a 96-well plate at the density of 1×10^4/90 μl/well. The plate containing K-562 cells was added with the culture medium containing the compounds of the present invention at 3-times serially diluted 9 concentrations (0.015-100 μM) and the DMSO control (10 μl/well). The plate containing Ba/F3-T315I cells was added with the culture medium containing the compounds of the present invention at 5-times serially diluted 9 concentrations (0.000256-100 μM) and the DMSO control (10 μl/well). The final concentration was made 0-10 μM and then the cells were cultured in a 37° C. CO2 incubator for 72 hours.
(§4) A375, K-562 and Ba/F3-T315I cells were added with CCK-8 solution at the concentration of 10 μl/well, followed by orbital shaking for 30 seconds. Then, the cells were cultured in a 37° C. CO2 incubator for 2 hours. OD450 was measured by using a microplate reader. The OD value of the well treated with the culture medium and CCK-8 solution alone was subtracted from the OD value measured above, followed by calculation of IC50 using GraphPad Prism 6 software.

A375 = test: as above
Procedure: as §1, §3, §4

T315I (Ba/F3) = target: T1, T315I (Ba/F3) (Homo sapiens, UniProt P00519, T315I, cells depend on it); test: as above; conditions: read-out: T315I (Ba/F3) IC50
T1 construct: fused on or other part: P11274 (Breakpoint cluster region protein)
Procedure: as §1, §3, §4

M-NFS-60 = test: as above
Procedure: as §1
M-NFS-60 cell line was cultured in the complete growth medium prepared by adding 10% FBS, 0.05 mM 2-mercaptoethanol and 62 ng of human M-CSF to RPMI. When the confluence reached 80% in T-75 flask, the cells were collected in a 50 ml tube for seeding, followed by centrifugation at 800 rpm for 5 minutes. The cells were suspended in 10 mL of growth medium. The cell number was counted by using a hematocytometer to determine the necessary cell number and the medium volume for seeding. The cells were seeded in a 96-well plate at the density of 20000 cells/well (200 μL/well), followed by stabilization in a 37° C. CO2 incubator, while the compounds of the present invention were prepared. The compounds of the present invention were serially diluted with DMSO at the ratio of 1/3 with setting the maximum concentration at 1968 nM, which were loaded in a new V-bottom 96-well plate, resulting in the preparation of total 11 concentrations including the DMSO control. The cells that had been placed in the incubator were taken out, to which the compounds of the present invention were added (2 μl/well). The plate treated with the compounds was cultured in a 37° C. CO2 incubator for 72 hours. 72 hours later, the plate treated with the compounds was taken out, to which CCK-8 solution was treated (20 μl/well). After well mixing, the plate was further cultured in a 37° C. CO2 incubator for 2 hours. Then, OD450 was measured by using a microplate reader. To obtain accurate results, the wells displaying bubbles were eliminated from the measurement.

RET (LC2/ad-CDC6) = test: Cancer cell proliferation inhibition, MTS assay, 72 hours; conditions: 72 h
Procedure: as §1, §2

FYN (MCP-1) = test: as above
Procedure: as §1, §2

Compound | IC50 (MDA-MB-231; Homo sapiens, MDA-MB-231, 72 h) [nM] | IC50 (Huh7) [nM] | IC50 (SK-MEL-28) [nM] | IC50 (K562; Homo sapiens, K562, 72 h) [nM] | IC50 (A375; Homo sapiens, A-375, 72 h) [nM] | GI50 (T315I (Ba/F3)) [nM] | IC50 (M-NFS-60) [nM] | IC50 (RET (LC2/ad-CDC6)) [nM] | IC50 (FYN (MCP-1)) [nM] | IC50 (MDA-MB-231) [nM] | IC50 (K562) [nM] | IC50 (A375) [nM]
Cc1ccc(C(=O)Nc2ccccc2F)cc1C#Cc1cnc2c(Nc3cnn(C)c3)cccn12 [Example 2, N-(2-fluorophenyl)-4-methyl-3-((8-((1-methyl-1H-pyrazol-4-yl)amino)imidazo[1,2-a]pyridin-3-yl)ethynyl)benzamide] | > 10000 | > 50000 | > 10000 | 12 | > 10000 | > 10000 | – | – | – | – | – | –
Cc1ccc(C(=O)Nc2ccc(CN3CCN(C)CC3)c(C(F)(F)F)c2)cc1C#Cc1cnc2c(Nc3ccc(C(F)(F)F)cc3)cccn12 [Example 19, 4-methyl-N-(4-((4-methylpiperazin-1-yl)methyl)-3-(trifluoromethyl)phenyl)-3-((8-((4-(trifluoromethyl)phenyl)amino)imidazo[1,2-a]pyridin-3-yl)ethynyl)benzamide] | 3190 | 15200 | 3720 | 131 | 4080 | 785 | 240 | < 10000 | – | – | – | –
CCN1CCN(Cc2ccc(NC(=O)c3ccc(C)c(C#Cc4cnc5c(Nc6ccc(C)cn6)cccn45)c3)cc2C(F)(F)F)CC1 [Example 21, N-(4-((4-ethylpiperazin-1-yl)methyl)-3-(trifluoromethyl)phenyl)-4-methyl-3-((8-((5-methylpyridin-2-yl)amino)imidazo[1,2-a]pyridin-3-yl)ethynyl)benzamide] | 1650 | 1850 | 1480 | 15 | 1850 | 149 | – | < 100 | – | – | – | –
Cc1ccc(Nc2cccn3c(C#Cc4cc(C(=O)Nc5ccc(CN6CCN(C)CC6)c(C(F)(F)F)c5)ccc4C)cnc23)cc1 [Example 24, 4-methyl-N-(4-((4-methylpiperazin-1-yl)methyl)-3-(trifluoromethyl)phenyl)-3-((8-(p-toylamino)imidazo[1,2-a]pyridin-3-yl)ethynyl)benzamide] | 3600 | 11300 | 2630 | 45 | 3520 | 668 | – | < 1000 | – | – | – | –
CCN1CCN(Cc2ccc(NC(=O)c3ccc(C)c(C#Cc4cnc5c(Nc6ccc(C)cc6)cccn45)c3)cc2C(F)(F)F)CC1 [Example 25, N-(4-((4-ethylpiperazin-1-yl)methyl)-3-(trifluoromethyl)phenyl)-4-methyl-3-((8-(p-toylamino)imidazo[1,2-a]pyridin-3-yl)ethynyl)benzamide] | 3040 | 17300 | 2090 | 52 | 3710 | 619 | – | < 1000 | – | – | – | –
Cc1ccc(NC(=O)Nc2cccc(C(F)(F)F)c2)cc1C#Cc1cnc2c(Nc3cnn(C(C)C)c3)cccn12 [Example 83, 1-(3-((8-((1-isopropyl-1H-pyrazol-4-yl)amino)imidazo[1,2-a]pyridin-3-yl)ethynyl)-4-methylphenyl)-3-(3-(trifluoromethyl)phenyl)urea] | 5700 | 2180 | 1440 | 20 | 5160 | 627 | – | 1000 | – | – | – | –
Cc1ccc(NC(=O)Nc2cc(C(C)(C)C)on2)cc1C#Cc1cnc2c(Nc3cnn(C(C)C)c3)cccn12 [Example 84, 1-(5-(tert-butyl)isoxazol-3-yl)-3-(3-((8-((1-isopropyl-1H-pyrazol-4-yl)amino)imidazo[1,2-a]pyridin-3-yl)ethynyl)-4-methylphenyl)urea] | > 10000 | 5650 | 4460 | 90 | 5040 | 3070 | 1610 | 1000 | – | – | – | –

More lines, in order of falling GI50 (T315I (Ba/F3)), values ahead:

IC50 (MDA-MB-231; Homo sapiens, MDA-MB-231, 72 h) [nM] | IC50 (Huh7) [nM] | IC50 (SK-MEL-28) [nM] | IC50 (K562; Homo sapiens, K562, 72 h) [nM] | IC50 (A375; Homo sapiens, A-375, 72 h) [nM] | GI50 (T315I (Ba/F3)) [nM] | IC50 (M-NFS-60) [nM] | IC50 (RET (LC2/ad-CDC6)) [nM] | IC50 (FYN (MCP-1)) [nM] | IC50 (MDA-MB-231) [nM] | IC50 (K562) [nM] | IC50 (A375) [nM] | Compound
1010 | 70 | – | < 1 | 903 | 831 | – | – | 9830 | – | – | – | Cc1ccc(C(=O)Nc2ccc(CN3CCN(C)[C@H](C)C3)c(C(F)(F)F)c2)cc1C#Cc1cnc2c(Nc3cnn(CCCN(C)C)c3)cccn12 [Example 34, (R)-3-((8-((1-(3-(dimethylamino)propyl)-1H-pyrazol-4-yl)amino)imidazo[1,2-a]pyridin-3-yl)ethynyl)-N-(4-((3,4-dimethylpiperazin-1-yl)methyl)-3-(trifluoromethyl)phenyl)-4-methylbenzamide]
– | – | – | – | – | 97.5 | – | – | 5600 | 755 | < 1 | 791 | N-(4-((3-(dimethylamino)pyrrolidin-1-yl)methyl)-3-(trifluoromethyl)phenyl)-4-methyl-3-((8-((1-methyl-1H-pyrazol-4-yl)amino)imidazo[1,2-a]pyridin-3-yl)ethynyl)benzamide [Example 55]
1300 | – | – | 8 | 1390 | 32.6 | – | – | 320 | – | – | – | COCCn1cc(Nc2cccn3c(C#Cc4cc(C(=O)Nc5cc(C(C)(C)C(F)(F)F)on5)ccc4C)cnc23)cn1 [Example 58, 3-((8-((1-(2-methoxyethyl)-1H-pyrazol-4-yl)amino)imidazo[1,2-a]pyridin-3-yl)ethynyl)-4-methyl-N-(5-(1,1,1-trifluoro-2-methylpropan-2-yl)isoxazol-3-yl)benzamide]
319 | 87.8 | – | < 1 | 249 | 28.8 | 31.1 | > 10 | – | – | – | – | Cc1ccc(C(=O)Nc2ccc(CN3CC[C@H](N(C)C)C3)c(C(F)(F)F)c2)cc1C#Cc1cnc2c(Nc3cnn(C)c3)cccn12 [Example 51, (S)—N-(4-((3-(dimethylamino)pyrrolidin-1-yl)methyl)-3-(trifluoromethyl)phenyl)-4-methyl-3-((8-((1-methyl-1H-pyrazol-4-yl)amino)imidazo[1,2-a]pyridin-3-yl)ethynyl)benzamide]
